Results as given in patent publication EP4108244A1, “SS-LACTAM ANTIBIOTIC WITH SIGNIFICANT ACTIVITY AGAINST CANCER E.G. COLON MALIGNANCIES” (priority 2021, dated 2022).
Values joined by “and” are separate entries in the source; they are usually repeats but may differ in a detail not shown here. Equal entries are not always repeated. Marks after values point to notes of the source that are not given here.

What was measured:
[1] = system: HCT-116 cells; experiment: MTT metabolic activity assay; format: cell-based, human; conditions: for effect of combination with 5-FU on the inhibition of metabolic activity induced by 5-FU (in words): 5-FU 16 µM and 24 µM, MER, AMP, PIP 10, 50, 100 µg/mL, BenP, FLU 5, 25, 50 µg/mL
[2] = system: DLD-1 cells; experiment: Antibiotics' uptake by the cells, LC-MS/MS; conditions: for Concentration of CFP, Lysate / Concentration of CFP, Supernatant: CFP 50 µg/ml alone or + 5-FU 16 µM
Description: (§1) This step was repeated three times and cell homogenate were vortexed at high-speed prior extraction. 40 µl from each supernatant and cell suspension were combined with 200 µl of internal standard working solution prepared in ice-cold methanol. Samples were then centrifuged and 100 µl of the supernatant were diluted with 400 µl water in glass vials prior analysis with LC-/MS/MS.

[3] = system: HCT-116 cells; experiment: Antibiotics' uptake by the cells, LC-MS/MS; conditions: for Concentration of CFP, Lysate / Concentration of CFP, Supernatant: HCT-116 cells, CFP 50 µg/ml alone or + 5-FU 8 µM
Description: as §1

[4] = system: HCT-116 cells; experiment: Caspase-3/7 activity assay; format: cell-based, human; conditions: combined with 5-FU 8 µM, 48 and 72h, CFT 100 µg/ml, CFP 50 µg/ml
Description: (§2) Caspase-3/7 activity was measured 48 h and 72 h post-treatment according to the manufacturer's protocol (Caspase-Glo-3/7 Assay, Promega Corp, Madison, WI, USA). Briefly, equal volume from treated cells and caspase-3/7 mixture were incubated at room temperature for 3 h and the luminescence was measured by a microplate reader.

[5] = Stability in media, LC-MS/MS; format: physicochemical; conditions: antibiotic alone (CFP 50 µg/mL, CFT 100 µg/mL)
Description: B) CFT (100 µg/ml) ± 5-FU (8 µM and 16 µM). P value (a) (between antibiotic alone and 5-FU (8 µM)); P value (b) (between antibiotic alone and 5-FU (16 µM)), n = 3.

[6] = system: DLD-1 cells; experiment: Cell cycle distribution, propidium iodide staining; format: cell-based, human; conditions: CFT 100 µg/mL, CFP 50 µg/mL, 5-FU 16 µM, alone or combined, mean ± SE
Description: Propidium iodide (PI) staining was used to evaluate the effect of the different treatments on the cell cycle. […] 48 h and 72 h post-treatment, collected cells were fixed with ice-cold ethanol (70%) and stored at - 20 °C for at least 2 h. Fixed cells, which were washed with PBS and incubated at 37 °C for 1 h with 50 µl RNase (1 mg/ml) (Sigma Aldrich, Germany), were stained for 15 minutes with PI (Molecular Probes, Eugene, Oregon, USA). Cell cycle was monitored using BD FACSDiva™ and the percentage of cells in the different phases of the cell cycle (pre-Gi, G0/G1, S, and G2/M) phases was determined using BD FACSDiva™ Software.
Propidium iodide (PI) staining was used to evaluate the effect of the different treatments (Ceftazidime (100 µg/ml) or 5-Fluorouracil (16 µM)) on the cell cycle profile of DLD-1 cells. Briefly, DLD-1 cells were plated at 5^∗104/ml and treated for 48 h and 72 h. Collected cells were fixed with ice-cold ethanol (70%) and stored at -20°C for at least 2 h. Fixed cells, which were washed with PBS and incubated at 37°C for 1 h with 50 µl RNase (1 mg/ml) (Sigma Aldrich, Germany), were stained for 15 minutes with PI (Molecular Probes, Eugene, Oregon, USA). Cell cycle was monitored using BD FACSDiva™ and the percentage of cells in the different phases of the cell cycle (pre-Gi, G0/G1, S, and G2/M) phases was determined using BD FACSDiva™ Software.

[7] = system: HCT-116 cells; experiment: Cell cycle distribution, propidium iodide staining; format: cell-based, human; conditions: for percentage of cells in G0/G1 / percentage of cells in G2/M / percentage of cells in Pre G1 / percentage of cells in S: CFT 100 µg/mL, CFP 50 µg/mL, 5-FU 8 µM, alone or combined, mean ± SE
Description: Propidium iodide (PI) staining was used to evaluate the effect of the different treatments on the cell cycle. […] Fixed cells, which were washed with PBS and incubated at 37 °C for 1 h with 50 µl RNase (1 mg/ml) (Sigma Aldrich, Germany), were stained for 15 minutes with PI (Molecular Probes, Eugene, Oregon, USA).

[8] = system: Caco-2 cells; experiment: MTT metabolic activity assay; format: cell-based, human; conditions: Homo sapiens, 24 h post-treatment, 5-Fluorouracil 4µM, read-out: inhibition of proliferation (metabolic activity)
Description: (§3) Cells were plated at 2^∗104cells/ml in 96-well plates and incubated overnight. The following day, cells were treated in triplicate with Ceftazdime or 5-fluorouracil for 24-48 h, depending on the cell line used. Metabolic activity of the cells was studied using the MTT assay that measures the ability of metabolically active cells to convert tetrazolium salt into a blue formazan product, the absorbance of which is recorded at 540 nm by an ELISA reader (Bio-Rad iMark Microplate Reader).

[9] = system: DLD-1 cells; experiment: Caspase-3/7 activity assay; format: cell-based, human; conditions: 48 h and 72 h, 5-FU 16 µM, CFT 100 µg/ml
Description: as §2
as §2, with “DLD-1 cells were treated with CFT (100 µg/ml) or 5-Fluorouracil (16 µM). Caspase-3/7” for “Caspase-3/7”, “caspase 3/7” for “caspase-3/7”

[10] = system: DLD-1 cells; experiment: MTT metabolic activity assay; format: cell-based, human; conditions: 48 h post-treatment, 5-Fluorouracil 16µM
Description: MTT assay was used to assess the proliferation rate of HCT-116 and DLD-1 cells. In this assay the ability of metabolically active cells to convert tetrazolium salt into a blue formazan product is measured. The absorption of the dissolved formazan was quantified at 540 nm by an ELISA reader (Bio-Rad iMark Microplate Reader).
as §3, with “The following day, cells were treated in triplicate with Ceftazdime or 5-fluorouracil for 24-48 h, depending on the cell line used.” left out

[11] = system: RAW 264.7 cells; experiment: MTT metabolic activity assay on macrophages; format: cell-based, murine; conditions: RAW 264.7
Description: as §3

In the case of `CC1(C)S[C@@H]2[C@H](NC(=O)[C@H](N)c3ccccc3)C(=O)N2[C@H]1C(=O)O` [AMP, ampicillin], the “effect of combination with 5-FU on the inhibition of metabolic activity induced by 5-FU (in words)” value [1] is reported as “does not affect the inhibition”.
With `Cc1onc(-c2c(F)cccc2Cl)c1C(=O)N[C@@H]1C(=O)N2[C@@H]1SC(C)(C)[C@@H]2C(=O)O` [FLU, flucloxacillin] the “effect of combination with 5-FU on the inhibition of metabolic activity induced by 5-FU (in words)” value [1] was “does not affect the inhibition”.
With `CCN1CCN(C(=O)N[C@@H](C(=O)N[C@@H]2C(=O)N3[C@@H]2SC(C)(C)[C@@H]3C(=O)O)c2ccccc2)C(=O)C1=O` [PIP, piperacillin] the “effect of combination with 5-FU on the inhibition of metabolic activity induced by 5-FU (in words)” value [1] was “does not affect the inhibition”.
For `CO/N=C(\C(=O)N[C@@H]1C(=O)N2C(C(=O)[O-])=C(C[N+]3(C)CCCC3)CS[C@H]12)c1csc(N)n1` [CFP, cefepime], the “Concentration of CFP, Lysate” value ([2]; 2 h) was 0.012 ± 0.005, the “Concentration of CFP, Supernatant” value ([2]; 2 h) was 50.000 ± 1.697 and the “Concentration of CFP, Lysate” value ([2]; 4 h) was 0.010 ± 0.0002. The “Concentration of CFP, Supernatant” value ([2]; 4 h) was 54.187 ± 0.849, the “Concentration of CFP, Lysate” value ([2]; 6 h) was 0.014 ± 0.0001 and the “Concentration of CFP, Supernatant” value ([2]; 6 h) was 45.813 ± 3.818. For the same molecule, the “Concentration of CFP, Lysate” value ([2]; 8 h) was 0.012 ± 0.001, the “Concentration of CFP, Supernatant” value ([2]; 8 h) was 47.947 ± 12.644 and the “average uptake by the cells” value ([2]; up to 8h) was “around 0.02%”. The “Concentration of CFP, Lysate” value ([3]; 2 h) was 0.018 ± 0.004, the “Concentration of CFP, Supernatant” value ([3]; 2 h) was 44.1 and 44.100 ± 3.395 and the “Concentration of CFP, Lysate” value ([3]; 4 h) was 0.022 ± 0.005. For the same molecule, the “Concentration of CFP, Supernatant” value ([3]; 4 h) was 34.500 ± 3.818, the “Concentration of CFP, Lysate” value ([3]; 6 h) was 0.050 ± 0.003 and the “Concentration of CFP, Supernatant” value ([3]; 6 h) was 35.250 ± 1.485. The “Concentration of CFP, Lysate” value ([3]; 8 h) was 0.032 ± 0.002, the “Concentration of CFP, Supernatant” value ([3]; 8 h) was 35.9 and 35.850 ± 1.909 and the “average uptake in HCT-116 cells compared to DLD-1 cells” value ([3]; up to 8h) was 2 folds. For the same molecule, the “effect on 5-FU-induced apoptosis (caspase 3/7, in words)” value [4] was “effect was seen only 72h post-treatment”, the “Stability test, level in media” value ([5]; 2h in media) was 49.9 ± 9.5 and the “Stability test, level in media” value ([5]; 8h in media) was 48.8 ± 5.3. For the same molecule, the “percentage of cells in G0/G1” value ([6]; 48 h) was 48.8 ± 4.0%, the “percentage of cells in G2/M” value ([6]; 48 h) was 18.4 ± 4.3% and the “percentage of cells in Pre G1” value ([6]; 48 h) was 2.6 ± 0.3%. The “percentage of cells in S” value ([6]; 48 h) was 29.2 ± 8.1%, the “percentage of cells in G0/G1” value ([6]; 72 h) was 59.6 ± 3.6^(a) % and the “percentage of cells in G2/M” value ([6]; 72 h) was 17.0 ± 3.5%. The “percentage of cells in Pre G1” value ([6]; 72 h) was 9.5 ± 4.1^(a) %, the “percentage of cells in S” value ([6]; 72 h) was 13.1 ± 3.3^(a) % and the “percentage of cells in G0/G1” value ([7]; 48 h) was 51.7 ± 2.8%. For the same molecule, the “percentage of cells in G2/M” value ([7]; 48 h) was 24.6 ± 0.9%, the “percentage of cells in Pre G1” value ([7]; 48 h) was 4.9 ± 1.6% and the “percentage of cells in S” value ([7]; 48 h) was 13.6 ± 1.6%. The “percentage of cells in G0/G1” value ([7]; 72 h) was 53.8 ± 3.6^(a) %, the “percentage of cells in G2/M” value ([7]; 72 h) was 23.6 ± 2.2^(a) % and the “percentage of cells in Pre G1” value ([7]; 72 h) was 9.8% and 9.3 ± 2.9^(a) %. The “percentage of cells in S” value ([7]; 72 h) was 7.4 ± 1.4% and the “effect on 5-FU's effect on metabolic activity (in words)” value ([1]; 48 h post-treatment, CFT 100 µg/mL, CFP 50 µg/mL combined with 5-FU) was “antagonized 5-FU's effect”.
In the case of `C[C@@H](O)[C@H]1C(=O)N2C(C(=O)O)=C(S[C@@H]3CN[C@H](C(=O)N(C)C)C3)[C@H](C)[C@H]12` [MER, meropenem], the “effect of combination with 5-FU on the inhibition of metabolic activity induced by 5-FU (in words)” value [1] is reported as “does not affect the inhibition”.
With `CC1(C)S[C@@H]2[C@H](NC(=O)Cc3ccccc3)C(=O)N2[C@H]1C(=O)O` [BenP, benzylpenicillin] the “effect of combination with 5-FU on the inhibition of metabolic activity induced by 5-FU (in words)” value [1] was “does not affect the inhibition”.
With `O=c1[nH]cc(F)c(=O)[nH]1` [5-FU, 5-fluorouracil] the inhibition at 4 µM [8] was 22%, the “caspase 3/7 activity / apoptosis induction (in words)” value [9] was “did not induce caspase 3/7 activity” and the “inhibitory effect vs. control untreated cells (metabolic activity)” value [10] was 18%. For the same molecule, the “decrease of metabolic activity” value ([11]; 24 h of treatment) was 80%, the “metabolic activity of macrophages (in words)” value ([11]; 48 h post-treatment) was “sustained up to 48 h” and the “percentage of cells in G0/G1” value ([6]; 48 h) was 49.3 ± 4.4%. The “percentage of cells in G2/M” value ([6]; 48 h) was 10.3 ± 1.7^(a) %, the “percentage of cells in Pre G1” value ([6]; 48 h) was 6.3 ± 2.3% and the “percentage of cells in S” value ([6]; 48 h) was 32.0 ± 6.1^(a) %. For the same molecule, the “percentage of cells in G0/G1” value ([6]; 72 h) was 69.4 ± 5.0%, the “percentage of cells in G2/M” value ([6]; 72 h) was 5.4 ± 2.7^(a) % and the “percentage of cells in Pre G1” value ([6]; 72 h) was 4.7 ± 0.3%. For the same molecule, the “percentage of cells in S” value ([6]; 72 h) was 20.1 ± 2.9^(a) %, the “increase in the percentage of cells in the pre-G1 phase vs. control” value ([7]; 48 h) was 3 fold and the “percentage of cells in G0/G1” value ([7]; 48 h) was 48.4 ± 2.3^(a) %. The “percentage of cells in G2/M” value ([7]; 48 h) was 22.3 ± 2.9%, the “percentage of cells in Pre G1” value ([7]; 48 h) was 16.9 ± 2.5^(a) % and the “percentage of cells in S” value ([7]; 48 h) was 10.6 ± 1.0%. For the same molecule, the “increase in the percentage of cells in the pre-G1 phase vs. control” value ([7]; 72 h) was 8.2 fold, the “percentage of cells in G0/G1” value ([7]; 72 h) was 39.0 ± 9.5^(a) % and the “percentage of cells in G2/M” value ([7]; 72 h) was 16.4 ± 2.4^(a) %. The “percentage of cells in Pre G1” value ([7]; 72 h) was 36.7 ± 11.7^(a) % and the “percentage of cells in S” value ([7]; 72 h) was 6.6 ± 0.7%.
